The values below are quoted from earlier work in PMC2222665, “The dimerization domain of HIV-1 viral infectivity factor Vif is required to block virion incorporation of APOBEC3G” (Retrovirology, 2007).

The data set deals with HIV-1. Also on record: method as in PMID 1708976. To be noted: ref [45],[46].

In the case of `Cc1cn([C@H]2C[C@H](N=[N+]=[N-])[C@@H](CO)O2)c(=O)[nH]c1=O` [AZT], the “IC95 of HIV-1 infectivity” value was 5 µM.
